Assays:
[1] = system: acetylated LDL metabolism; conditions: Whitman S.C. et al. 2005; cited from earlier work
pH stability in buffers = assay type: physicochemical; conditions: for non-degraded: after 6 hours, 20 microgram per mL curcumin
Source text: (§1) Enhanced stability of colloidal dispersion of curcumin-zein to various pH and UV irradiation was studied as follows.

[2] = Photostability under UV irradiation; assay type: physicochemical; conditions: UV irradiation 302 nm
Source text: as §1

[3] = Stability in simulated gastro-intestinal conditions (dissolution test, gastric and intestinal phase); assay type: physicochemical; conditions: gastric phase pH 2 with pepsin in first 2 hours
Description: To study the stability of the colloidal dispersion of particles according to the invention in simulated gastro-intestinal conditions, a dissolution test was carried out in simulated gastric and intestinal phases using following conditions. This test indicates whether the particles are suitable to be used as a delivery system for phenolic compounds to the human body. Zein-curcumin particles (5:1 wt/wt) were used. • For gastric phase: Water with 0.05% Tween , pH 2 in first 2 hours with pepsin • For intestinal phase: pH adjusted to 6.8 and bile salts and pancreatin added to the medium. • Sampling point: (5, 15, 30, 60, 90, 120 and 180 mins).

[4] = Water dispersibility, USP 2 dissolution test; assay type: physicochemical; conditions: deionised water with 0.05% Tween 80
Description: The aim of the experiment is to see how well formulated curcumin disperses in aqueous media. […] Curcumin determined included both free as well as complexed or encapsulated curcumin. […] Samples were withdrawn at specified time interval (5, 15, 30, 60, 90, 120 and 180 mins) and analysed using UV-vis spectroscopic method.

In the case of `COc1ccc(-c2cc(=O)c3c(OC)c(OC)c(OC)c(OC)c3o2)cc1OC` [nobiletin], the “inhibited acetylated LDL metabolism” value [1] is listed as 50-72%.

Compound `COc1cc(/C=C/C(=O)CC(=O)/C=C/c2ccc(O)c(OC)c2)ccc1O` [pure curcumin, Curcumin] has a non-degraded (pH stability in buffers; pH 1.2) of 56.0%, a non-degraded (pH stability in buffers; pH 4.5) of 69.7% and a non-degraded (pH stability in buffers; pH 6.7) of 67.6%. For the same compound, the non-degraded (pH stability in buffers; pH 7.4) was 66.6%, the colour (pH stability in buffers; pH 9.0) was “turned red in colour” and the non-degraded (pH stability in buffers; pH 9.0) was 52.9%. The unchanged curcumin level ([2]; 0 min) was 100%, the unchanged curcumin level ([2]; 5 min) was 93.6% and the unchanged curcumin level ([2]; 10 min) was 88.4%. The unchanged curcumin level ([2]; 15 min) was 66.7%, the unchanged curcumin level ([2]; 30 min) was 59.6% and the release ([3]; 0 min, then intestinal phase pH 6.8 with bile salts and pancreatin) was 0%. The release ([3]; 5 min, then intestinal phase pH 6.8) was 18.0 ± 2.0%, the release ([3]; 15 min, then intestinal phase pH 6.8) was 18.3 ± 0.3% and the release ([3]; 30 min, then intestinal phase pH 6.8) was 20.9 ± 2.2%. It also gave a release ([3]; 60 min, then intestinal phase pH 6.8) of 21.7 ± 1.9%, a release ([3]; 90 min, then intestinal phase pH 6.8) of 38.1 ± 0.5% and a release ([3]; 120 min, then intestinal phase pH 6.8) of 36.9 ± 1.4%. It also gave a release ([3]; 150 min, then intestinal phase pH 6.8) of 37.6 ± 2.3%, a release ([3]; 180 min, then intestinal phase pH 6.8) of 37.0 ± 1.2% and a cumulative release ([4]; 0 min) of 0%. It also gave a cumulative release ([4]; 15 min) of 18.1 ± 1.3%, a cumulative release ([4]; 30 min) of 19.1 ± 1.4% and a cumulative release ([4]; 60 min) of 22.6 ± 1.7%. For the same compound, the cumulative release ([4]; 90 min) was 25.7 ± 1.9%, the cumulative release ([4]; 120 min) was 27.8 ± 2.0% and the cumulative release ([4]; 180 min) was 32.8 ± 2.7%.

Source: EP2587940B1, “PARTICLES COMPRISING HYDROPHOBIC POLYMER AND HYDROPHOBIC PHENOLIC COMPOUND” (Unilever N.V., priority 2010, dated 2012)
